In US9862730B2, “Imidazothiadiazole derivatives as protease activated receptor 4 (PAR4) inhibitors for treating platelet aggregation” (BRISTOL-MYERS SQUIBB COMPANY, priority 2012, dated 2018):

Target: PAR4 (Homo sapiens (Human), UniProt Q96RI0)
Test: FLIPR assay in PAR4-expressing HEK293 cells (PAR4 antagonist activity, calcium mobilization)
Type: cell-based
Conditions: FLIPR assay as described in Example A
Procedure, shortened: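 HEK293 cells stably expressing human PAR4 (also endogenous PAR1) in HBSS/10 mM HEPES, 0.67% DMSO final. Compound added and read for agonist activity, then 30 min room temperature before PAR4 agonist peptide; intracellular calcium mobilization monitored by FDSS/FLIPR.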

PAR4, sequence (Q96RI0 18-385): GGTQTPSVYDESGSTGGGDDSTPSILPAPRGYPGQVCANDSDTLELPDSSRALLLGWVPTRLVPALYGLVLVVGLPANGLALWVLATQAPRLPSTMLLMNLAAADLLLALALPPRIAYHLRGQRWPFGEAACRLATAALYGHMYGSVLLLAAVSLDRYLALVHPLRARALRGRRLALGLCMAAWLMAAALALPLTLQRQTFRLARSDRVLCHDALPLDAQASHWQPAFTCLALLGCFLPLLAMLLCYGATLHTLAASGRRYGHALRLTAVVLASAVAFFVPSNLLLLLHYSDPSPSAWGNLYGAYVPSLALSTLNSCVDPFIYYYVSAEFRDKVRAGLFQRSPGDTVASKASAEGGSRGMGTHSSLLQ

IC50 [nM] | SMILES
149 | CCc1nn2cc(-c3cc4cccc(OCC#N)c4o3)nc2s1 [Example 53]
187 | COc1nn2cc(-c3cc4cc(OC(F)(F)F)ccc4o3)nc2s1 [Example 98]
19.4 | CSc1nn2cc(-c3nc4cc(F)ccc4s3)nc2s1 [Example 182, 5-Fluoro-2-(2-(methylthio)imidazo[2,1-b][1,3,4]thiadiazol-6-yl)benzo[d]thiazole]
4.69 | COc1cc(OCc2cccc(OCc3c(Cl)cccc3Cl)c2)c2cc(-c3cn4nc(OC)sc4n3)oc2c1 [Example 368]
3.43 | COc1cc(OC(C)C)c2cc(-c3cn4nc(OC)sc4n3)oc2c1 [Example 300]
301 | CSc1nn2cc(-c3nc4c(OCc5ccc(C(F)(F)F)cc5)cccc4o3)nc2s1 [Example 155]
1650 | CCc1nn2cc(-c3cc4cc(OC)ccc4o3)nc2s1 [Example 61]
16.7 | COCOc1cccc2oc(-c3cn4nc(SC)sc4n3)cc12 [Example 215, 6-(4-(Methoxymethoxy)benzofuran-2-yl)-2-(methylthio)imidazo[2,1-b][1,3,4]thiadiazole]
2.62 | COc1cc(OCc2cccc(OCc3c(F)ccc(F)c3F)c2)c2cc(-c3cn4nc(OC)sc4n3)oc2c1 [Example 330]
27.9 | COc1nn2cc(-c3nc4cc(C)ccc4o3)nc2s1 [Example 127]
201 | c1ccc2oc(-c3cn4nc(C5CC5)sc4n3)cc2c1 [Example 63]
537 | CSc1nn2cc(-c3nc4c(OC[C@H]5CCCN5C(=O)[C@H](NC(=O)c5ccccc5)c5ccccc5)cccc4o3)nc2s1 [Example 335, N—((R)-2-((R)-2-(((2-(2-(Methylthio)imidazo[2,1-b][1,3,4]thiadiazol-6-yl)benzo[d]oxazol-4-yl)oxy)methyl)pyrrolidin-1-yl)-2-oxo-1-phenylethyl)benzamide]
317 | COc1ccc(Br)c2cc(-c3cn4nc(Br)sc4n3)oc12 [Example 285]
50.5 | COc1cc(OC)c2cc(-c3cn4nc(C(C)(F)F)sc4n3)oc2c1 [Example 242]
407 | CNc1nn2cc(-c3cc4ccccc4o3)nc2s1 [Example 69]
144 | CSc1nn2cc(-c3cc4cccc(Cl)c4o3)nc2s1 [Example 23]
8.36 | COc1cc(OCc2cccc(OCc3ccccc3-c3ccccc3)c2)c2cc(-c3cn4nc(OC)sc4n3)oc2c1 [Example 317]
3.12 | COc1cc(OCc2cccc(OCc3c(OC)cccc3OC)c2)c2cc(-c3cn4nc(OC)sc4n3)oc2c1 [Example 388]
106 | Cc1cc(C)c2cc(-c3cn4nc(Br)sc4n3)oc2c1 [Example 296]
11.4 | COc1ccc(OC)c2oc(-c3cn4nc(SC)sc4n3)cc12 [Example 105]
6.63 | COc1ccc2nc(-c3cn4nc(SC)sc4n3)oc2c1 [Example 116, 6-Methoxy-2-(2-(methylthio)imidazo[2,1-b][1,3,4]thiadiazol-6-yl)benzo[d]oxazole]
654 | CSc1nn2cc(-c3nc4ccc(OCc5ccccn5)cc4o3)nc2s1 [Example 117, 2-(2-(Methylthio)imidazo[2,1-b][1,3,4]thiadiazol-6-yl)-6-(pyridin-2-ylmethoxy)benzo[d]oxazole]
8.51 | CCc1nn2cc(-c3cc4cccc(OC)c4o3)nc2s1 [Example 37]
167 | CSc1nn2cc(-c3nc4ccc(OCC5CC5)cc4o3)nc2s1 [Example 174]

IC50 [nM] | SMILES
3710 | COc1cc(OCc2cccc(OCc3ccccc3)c2)c2oc(-c3cn4nc(OC)sc4n3)cc2c1 [Example 409, 6-(7-((3-(Benzyloxy)benzyl)oxy)-5-methoxybenzofuran-2-yl)-2-methoxyimidazo[2,1-b][1,3,4]thiadiazole]
3.36 | COc1cc(OCc2cccc(OCc3ccccc3C(F)(F)F)c2)c2cc(-c3cn4nc(OC)sc4n3)oc2c1 [Example 326]
0.32 | COc1cc(OCc2cccc(OCc3cccc(Cl)c3)c2)c2cc(-c3cn4nc(OC)sc4n3)oc2c1 [Example 349]
2.77 | COc1cc(OCc2cccc(OCc3ccc(C)c(C)c3)c2)c2cc(-c3cn4nc(OC)sc4n3)oc2c1 [Example 381]
113 | Cc1cccc2cc(-c3cn4nc(C(C)(F)F)sc4n3)oc12 [Example 234]
0.87 | COc1cc(OC[C@@H]2COC(C)(C)O2)c2cc(-c3cn4nc(OC)sc4n3)oc2c1 [Example 339, (R)-6-(4-((2,2-Dimethyl-1,3-dioxolan-4-yl)methoxy)-6-methoxybenzofuran-2-yl)-2-methoxyimidazo[2,1-b][1,3,4]thiadiazole]
41.3 | CSc1nn2cc(-c3nc4c(OCC5CC5)cccc4o3)nc2s1 [Example 175]
222 | COc1ccc2oc(-c3cn4nc(OC)sc4n3)cc2c1 [Example 93]
3.45 | COc1cc(OCc2cccc(OCc3cccc4ccccc34)c2)c2cc(-c3cn4nc(OC)sc4n3)oc2c1 [Example 310]
213 | CSc1nn2cc(-c3nc4ccccc4o3)nc2s1 [Example 110, 2-(2-(Methylthio)imidazo[2,1-b][1,3,4]thiadiazol-6-yl)benzo[d]oxazole]
122 | CCc1nn2cc(-c3nc4ccc(Cl)cc4o3)nc2s1 [Example 40]
394 | CCCOc1ccc2nc(-c3cn4nc(CC)sc4n3)oc2c1 [Example 51]
24.5 | COc1nn2cc(-c3cc4c(OCc5ccccc5)cccc4o3)nc2s1 [Example 210, 6-(4-(Benzyloxy)benzofuran-2-yl)-2-methoxyimidazo[2,1-b][1,3,4]thiadiazole]
10.3 | C[C@H](F)c1nn2cc(-c3cc4c(Cl)cc(Cl)cc4o3)nc2s1 [Example 213B, (S)-6-(4,6-Dichlorobenzofuran-2-yl)-2-(1-fluoroethyl)imidazo[2,1-b][1,3,4]thiadiazole]
920 | CSc1nn2cc(-c3nc4ccc(Cl)cc4s3)nc2s1 [Example 188]
1340 | COc1nn2cc(-c3cc4c(OCc5cccc(C#N)c5)cccc4o3)nc2s1 [Example 281]
1590 | CCCCOc1cccc2cc(-c3cn4nc(CC)sc4n3)oc12 [Example 64]
3.58 | COc1nn2cc(-c3cc4ccc(Cl)cc4o3)nc2s1 [Example 94]
1.35 | COc1cc(OCc2cccc(OCc3ccc(OC)c(OC)c3Cl)c2)c2cc(-c3cn4nc(OC)sc4n3)oc2c1 [Example 361]
3.37 | COc1cc2oc(-c3cn4nc([C@H](C)F)sc4n3)cc2cc1Cl [270B]
2340 | CC(F)(F)c1nn2cc(-c3nc4ccccc4o3)nc2s1 [Example 178]
565 | CCc1nn2cc(-c3nc4cc(C)cc(C)c4o3)nc2s1 [Example 58]
171 | COCOc1ccc2nc(-c3cn4nc(SC)sc4n3)oc2c1 [Example 162]
28 | COc1cc(OCc2ccccc2)c2cc(-c3cn4nc(C(C)(F)F)sc4n3)oc2c1 [Example 265]

IC50 [nM] | SMILES
4.53 | COc1cc2oc(-c3cn4nc(SC)sc4n3)cc2cc1Br [Example 261]
13.9 | COc1ccc2c(C)c(-c3cn4nc(SC)sc4n3)oc2c1 [Example 106]
450 | CCc1nn2cc(-c3nc4ccc(OC(C)C)cc4o3)nc2s1 [Example 87]
1370 | CCc1nn2cc(-c3nc4ccc(OCCC(C)C)cc4o3)nc2s1 [Example 77]
621 | CSc1nn2cc(-c3nc4ccc(OCc5cccc(C#N)c5)cc4o3)nc2s1 [Example 150]
2.3 | COc1cc(OCc2cccc(OCc3ccc(F)cc3F)c2)c2cc(-c3cn4nc(OC)sc4n3)oc2c1 [Example 374]
139 | CSc1nn2cc(-c3nc4c(OCc5ccccn5)cccc4o3)nc2s1 [Example 166]
1.24 | COc1cc(OCc2cccc(OCc3ccccc3Cl)c2)c2cc(-c3cn4nc(OC)sc4n3)oc2c1 [Example 362]
170 | COc1cc(O)c2cc(-c3cn4nc(OC)sc4n3)oc2c1 [Example 204, 6-Methoxy-2-(2-methoxyimidazo[2,1-b][1,3,4]thiadiazol-6-yl)benzofuran-4-ol]
9.37 | C#Cc1cc(OCc2cccc(OCc3ccccc3)c2)c2cc(-c3cn4nc(OC)sc4n3)oc2c1 [Example 418]
230 | CC(F)c1nn2cc(-c3cc4c(OCc5ccccc5)cccc4o3)nc2s1 (stereo not shown) [Example 251]
4.92 | COc1cc(OCc2cccc(OCc3ccc(OCc4ccccc4)c(OC)c3)c2)c2cc(-c3cn4nc(OC)sc4n3)oc2c1 [Example 357]
0.86 | COc1cc(OCc2cccc(OCc3ccccc3)c2)c2nc(-c3cn4nc(SC)sc4n3)oc2c1 [Example 403]
566 | CSc1nn2cc(-c3nc4c(OC[C@H]5CCCN5C(=O)[C@H](NC(=O)OC(C)(C)C)c5ccccc5)cccc4o3)nc2s1 [Example 333, tert-Butyl ((R)-2-((R)-2-(((2-(2-(methylthio)imidazo[2,1-b][1,3,4]thiadiazol-6-yl)benzo[d]oxazol-4-yl)oxy)methyl)pyrrolidin-1-yl)-2-oxo-1-phenylethyl)carbamate]
38.3 | COc1cc(OCc2cccc(OCc3cc(F)cc(OCc4ccccc4)c3)c2)c2cc(-c3cn4nc(OC)sc4n3)oc2c1 [Example 395]
3.48 | COc1nn2cc(-c3cc4cc(F)ccc4o3)nc2s1 [Example 97]
8.63 | COc1cc2oc(-c3cn4nc(Br)sc4n3)cc2cc1Cl [Example 200, 2-Bromo-6-(5-chloro-6-methoxybenzofuran-2-yl)imidazo[2,1-b][1,3,4]thiadiazole]
91.3 | COc1nn2cc(-c3nc4cccc(F)c4o3)nc2s1 [Example 144]
3.52 | COc1cc(OCc2cccc(OCc3ccc(C)c(Cl)c3)c2)c2cc(-c3cn4nc(OC)sc4n3)oc2c1 [Example 324]
3480 | CC(F)(F)c1nn2cc(-c3nc4c(N)cccc4o3)nc2s1 [Example 124, 2-(2-(1,1-Difluoroethyl)imidazo[2,1-b][1,3,4]thiadiazol-6-yl)-4-aminobenzo[d]oxazole]
224 | CSc1nn2cc(-c3nc4c(OCc5ccccc5)cccc4o3)nc2s1 [Example 148]
4.5 | COc1cc(OCc2cccc(OCc3cc(F)c(F)c(F)c3)c2)c2cc(-c3cn4nc(OC)sc4n3)oc2c1 [Example 328]
